Test results published in patent US11643417B2, “Tetrahydrobenzofurodiazepinone compound and pharmaceutical use thereof” (priority 2020, dated 2023).

Each molecule was assayed against human Pim-1 (Homo sapiens (Human), UniProt P11309) (assay: biochemical). Conditions: Ki converted from IC50; purified human Pim-1, Pim2tide substrate, ADP-Glo; read-out: hPim1 Ki.
Assay type: biochemical
Method: The human Pim-1 inhibitory activity of the test compounds was evaluated as follows.
(1) Purification of Human Pim-1
DNA fragment in which a His-Tag sequence and a translation termination sequence are added to the 3′-end of human Pim-1 translation sequence was amplified by PCR (Polymerase Chain Reaction), using human Pim-1 gene-inserted plasmid DNA (Kazusa DNA Laboratory, model number FXC11400) as a template. The amplified DNA fragment was fused with pGEx-6P-1 (GE Healthcare Japan, model number 27-4597-1) digested with BamHI and EcoRI using In-Fusion HD Cloning Kit (Takara Bio, model number 639649). […] The base sequence of Pim-1 cloned into vector was determined by Dye Terminator method using BigDye Terminator v3.1 Cycle Sequencing Kit (Applied Biosystems, model number 4337456). […] Escherichia coli BL21 (DE3) (Merck KGaA, model number 69449-4) transformed with human Pim-1-expressed plasmid DNA was cultured in 2×YT medium (Becton Dickinson, model number 2404020) at 30° C., until the optical concentration at 620 nm (OD620) reached 0.6, and then cultured overnight at 20° C. in the presence of 0.5 mmol/L isopropyl b-D-1-thiogalactopyranoside. After the completion of so the culture, the cells were collected and suspended in Homogenate Buffer (50 mmol/L Tris-HCl (pH 7.5), 500 mmol/L NaCl, 1% Tween20, complete, EDTA-free (Roche, model number 1873580)), and the suspended cells were lysed by passing through a microfluidizer M-110H (Mizuho Kogyo Co., Ltd.). The lysate was centrifuged at 10,100×g for 10 minutes, 4° C., and the supernatant was filtered through MILLEX-HV Filter (0.45 μm) (Millipore, SLHV033RS) to remove the cell residues. The filtrate was loaded onto complete His-Tag Purification Resin (Roche Diagnostics, model number 05 893 682 0.01). The column was washed with Equilibration Buffer-1 (50 mmol/L Tris-HCl (pH 7.5), 500 mmol/L NaCl, 1% Tween 20) containing 5 mmol/L Imidazole, followed by Equilibration Buffer-1 containing 50 mmol/L Imidazole, the human Pim-1 to which GST-Tag derived from pGEx-6P-1 was eluted with Equilibration Buffer-1 containing 150 mmol/L imidazole. […] The protease reaction was carried out by stirring overnight at 4° C., and the human Pim-1 in which the GST-Tag sequence was cleaved was eluted. The eluate was loaded onto a gel filtration column (Superdex-200 […] (GE Healthcare, model number 17-5175-01)) equilibrated with Equilibration Buffer-3 (50 mmol/L Tris-HCl (pH 7.5), 500 mmol/L NaCl, 0.05% Tween20, 0.5 mmol/L EDTA, 2 mmol/L DTT, 10% Glycerol), and eluted. The eluate was used as a human Pim-1 purified fraction.
The protein concentration of the human Pim-1 purified fraction was measured with Pierce 660 nm Protein Assay Reagent (Thermo Fisher Scientific, model number 22660). The purified fraction was rapidly frozen in liquid nitrogen, and then stored at −80° C. The His-Tag-added human Pim-1 was detected by Western blotting using a mouse anti-His monoclonal antibody (WAKO, model number 011-23091).
(2) Evaluation of Human Pim-1 Inhibitory Activity
The calculation of the Pim-1 inhibitory activity of the compound was performed using the following solution according to the protocol attached to ADP-Glo Kinase Assay (cat. V9102, Promega). The purified enzyme of human Pim-1 described above was used.
(i) Preparation of Solution
The kinase buffer solution (50 mmol/L HEPES (pH 7.5), 5 mmol/L MgCl2, 1 mmol/L DTT, 0.05% BSA) was prepared by dissolving HEPES (Jena Bioscience), MgCl2 (Sigma-Aldrich), DTT (Sigma-Aldrich) and BSA (Sigma-Aldrich) in purified water.
The ATP solution (288 μmol/L) was prepared by dissolving 100 mmol/L ATP (Promega) in the kinase buffer solution.

human Pim-1, sequence (P11309 whole entry): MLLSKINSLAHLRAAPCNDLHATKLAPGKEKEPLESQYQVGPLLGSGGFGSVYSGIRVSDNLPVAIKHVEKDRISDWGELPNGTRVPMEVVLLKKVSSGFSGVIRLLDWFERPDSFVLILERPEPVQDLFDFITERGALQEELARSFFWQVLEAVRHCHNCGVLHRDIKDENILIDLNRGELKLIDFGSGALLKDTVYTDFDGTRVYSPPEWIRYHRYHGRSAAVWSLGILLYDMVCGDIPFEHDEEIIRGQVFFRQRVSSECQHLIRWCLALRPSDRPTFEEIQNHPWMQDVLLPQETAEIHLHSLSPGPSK

| SMILES | Ki [nM] |
| --- | --- |
| COC(C1CC(O)C1)C1(CN2CCNC(=O)c3oc4ccc(C(F)(F)F)cc4c32)CC1 (centres unmarked) [Example 17] | 0.234 |
| O=C1NCCN(CC(F)(F)C2CC(O)(C(F)(F)F)CCO2)c2c1oc1ccc(C(F)(F)F)cc21 (centres unmarked) [Example 19] | 0.101 |
| CN1CCN(CC(F)(F)C2CC(O)CCO2)c2c(oc3ccc(C(F)(F)F)cc23)C1=O (centres unmarked) [Example 20] | 0.38 |
| CN1CCN(CC(F)(F)C2CC(O)(CO)CCO2)c2c(oc3ccc(C(F)(F)F)cc23)C1=O (centres unmarked) [Example 21] | 0.33 |
| O=C1NCCN(CCC2CCCCC2)c2c1oc1ccc(C(F)(F)F)cc21 [Example 25] | 11 |
| CC(C)(O)C1(O)CCOC(C(F)(F)CN2CCNC(=O)c3oc4ccc(C(F)(F)F)cc4c32)C1 (centres unmarked) [Example 30] | 0.0577 |
| N#CC1(CCO)CCOC(C(F)(F)CN2CCNC(=O)c3oc4ccc(C(F)(F)F)cc4c32)C1 (centres unmarked) [Example 33] | 0.0793 |
| COC1(CO)CCOC(C(F)(F)CN2CCNC(=O)c3oc4ccc(C(F)(F)F)cc4c32)C1 (centres unmarked) [Example 34] | 0.0206 |
| O=C1NCCN(CCC2CC(O)CCC2(F)F)c2c1oc1ccc(C(F)(F)F)cc21 (centres unmarked) [Example 38] | 0.189 |
| O=C1NCCN(CCC2CCCCO2)c2c1oc1ccc(C(F)(F)F)cc21 (centres unmarked) [Example 40] | 0.969 |
| O=C1NCCN(CC[C@H]2CO[C@H](CO)CO2)c2c1oc1ccc(C(F)(F)F)cc21 [Example 41] | 0.933 |
| O=C1NCCN(CC[C@H]2CO[C@@H](CO)CO2)c2c1oc1ccc(C(F)(F)F)cc21 [Example 42] | 0.567 |
| C[C@H]1CO[C@@H](CCN2CCNC(=O)c3oc4ccc(C(F)(F)F)cc4c32)CO1 [Example 43] | 0.741 |
| C[C@@H]1CO[C@@H](CCN2CCNC(=O)c3oc4ccc(C(F)(F)F)cc4c32)CO1 [Example 44] | 1.04 |
| O=C1NCCN(CC(F)(F)C2CC(CO)CCO2)c2c1oc1ccc(C(F)(F)F)cc21 (centres unmarked) [Example 47] | 0.0246 |
| CC(C)(O)C1CCOC(C(F)(F)CN2CCNC(=O)c3oc4ccc(C(F)(F)F)cc4c32)C1 (centres unmarked) [Example 49] | 0.0389 |
| O=C1NCCN(CC(F)(F)C2CC(OC(F)F)CCO2)c2c1oc1ccc(C(F)(F)F)cc21 (centres unmarked) [Example 54] | 0.133 |
| CC1(O)CCOC(C(F)(F)CN2CCNC(=O)c3oc4ccc(C(F)(F)F)cc4c32)C1 (centres unmarked) [Example 58, 1-(2,2-difluoro-2-(4-hydroxy-4-methyltetrahydro-2H-pyran-2-yl)ethyl)-9-(trifluoromethyl)-1,2,3,4-tetrahydro-5H-benzofuro[3,2-e][1,4]diazepin-5-one] | 0.0167 |
| CC1(O)CCOC(C(F)(F)CN2CCNC(=O)c3oc4ccc(C(F)(F)F)cc4c32)C1 (centres unmarked) [Example 59, 1-(2,2-difluoro-2-(4-hydroxy-4-methyltetrahydro-2H-pyran-2-yl)ethyl)-9-(trifluoromethyl)-1,2,3,4-tetrahydro-5H-benzofuro[3,2-e][1,4]diazepin-5-one] | 0.107 |
| O=C1NCCN(CC(F)(F)C2CC(O)CCC2(F)F)c2c1oc1ccc(C(F)(F)F)cc21 (centres unmarked) [Example 62] | 0.0461 |
| C[C@H]1CO[C@H](CCN2CCNC(=O)c3oc4ccc(C(F)(F)F)cc4c32)CO1 [Example 63] | 0.452 |
| C[C@@H]1CO[C@H](CCN2CCNC(=O)c3oc4ccc(C(F)(F)F)cc4c32)CO1 [Example 64] | 0.263 |

| SMILES | Ki [nM] |
| --- | --- |
| O=C1NCCN(CC(F)(F)C2CCOCC2)c2c1oc1ccc(C(F)(F)F)cc21 [Example 65] | 0.12 |
| CC1(O)CCOC(C(F)(F)CN2CCNC(=O)c3oc4ccc(C(F)(F)F)cc4c32)C1 (centres unmarked) [Example 66, 1-(2,2-difluoro-2-(4-hydroxy-4-methyltetrahydro-2H-pyran-2-yl)ethyl)-9-(trifluoromethyl)-1,2,3,4-tetrahydro-5H-benzofuro[3,2-e][1,4]diazepin-5-one] | 0.0283 |
| CC1(O)CCOC(C(F)(F)CN2CCNC(=O)c3oc4ccc(C(F)(F)F)cc4c32)C1 (centres unmarked) [Example 67, 1-(2,2-difluoro-2-(4-hydroxy-4-methyltetrahydro-2H-pyran-2-yl)ethyl)-9-(trifluoromethyl)-1,2,3,4-tetrahydro-5H-benzofuro[3,2-e][1,4]diazepin-5-one] | 0.242 |
| O=C(OC[C@@H]1CO[C@H](CCN2CCNC(=O)c3oc4ccc(C(F)(F)F)cc4c32)CO1)c1ccccc1 [Example 69] | 18.5 |
| CC1(C)OCC(C(F)(F)CN2CCNC(=O)c3oc4ccc(C(F)(F)F)cc4c32)CO1 [Example 71] | 1.3 |
| O=C1NCCN(CC[C@@H]2CO[C@H](CO)CO2)c2c1oc1ccc(C(F)(F)F)cc21 [Example 72] | 2.29 |
| O=C(OC[C@H]1CO[C@H](CCN2CCNC(=O)c3oc4ccc(C(F)(F)F)cc4c32)CO1)c1ccccc1 [Example 73] | 4.74 |
| O=C1NCCN(CC[C@@H]2CO[C@@H](CO)CO2)c2c1oc1ccc(C(F)(F)F)cc21 [Example 74] | 0.738 |
| O=C1CCC(CCN2CCNC(=O)c3oc4ccc(C(F)(F)F)cc4c32)CC1 [Example 75] | 1.62 |
| O=C1NCCN(CC(F)(F)[C@@H]2CO[C@@H](CO)CO2)c2c1oc1ccc(C(F)(F)F)cc21 [Example 77, 1-(2,2-difluoro-2-((2S,5S)-5-(hydroxymethyl)-1,4-dioxan-2-yl)ethyl)-9-(trifluoromethyl)-1,2,3,4-tetrahydro-5H-benzofuro[3,2-e][1,4]diazepin-5-one] | 0.0438 |
| O=C1NCCN(CC(F)(F)[C@@H]2CO[C@H](CO)CO2)c2c1oc1ccc(C(F)(F)F)cc21 [Example 78] | 0.227 |
| C[C@]1(O)CC[C@@H](CCN2CCNC(=O)c3oc4ccc(C(F)(F)F)cc4c32)CC1 [Example 79] | 0.705 |
| C[C@]1(O)CC[C@H](CCN2CCNC(=O)c3oc4ccc(C(F)(F)F)cc4c32)CC1 [Example 80] | 0.205 |
| O=C1NCCN(CCC2CC3CCC(C2)O3)c2c1oc1ccc(C(F)(F)F)cc21 (centres unmarked) [Example 81] | 1.11 |
| O=C1NCCN(CCC2CC3(COC3)C2)c2c1oc1ccc(C(F)(F)F)cc21 [Example 82] | 2.06 |
| O=C1NCCN(CC[C@H]2CC[C@@H](O)CC2)c2c1oc1ccc(C(F)(F)F)cc21 [Example 83] | 0.762 |
| O=C1NCCN(CC[C@H]2CC[C@@](O)(C(F)(F)F)CC2)c2c1oc1ccc(C(F)(F)F)cc21 [Example 84] | 0.236 |
| O=C1NCCN(CC[C@H]2CC[C@](O)(C(F)(F)F)CC2)c2c1oc1ccc(C(F)(F)F)cc21 [Example 85] | 4.08 |
| O=C1NCCN(CCC2CCC(C(=O)O)CC2)c2c1oc1ccc(C(F)(F)F)cc21 (centres unmarked) [Example 86] | 4.06 |
| O=C1NCCN(CCC2CCS(=O)(=O)CC2)c2c1oc1ccc(C(F)(F)F)cc21 [Example 87] | 1.97 |
| O=C1NCCN(CC[C@H]2CC[C@](O)(CO)CC2)c2c1oc1ccc(C(F)(F)F)cc21 [Example 90, 1-(2-((1s,4s)-4-hydroxy-4-(hydroxymethyl)cyclohexyl)ethyl)-9-(trifluoromethyl)-1,2,3,4-tetrahydro-5H-benzofuro[3,2-e][1,4]diazepin-5-one] | 0.0091 |
| CC1(C(=O)O)CCC(CCN2CCNC(=O)c3oc4ccc(C(F)(F)F)cc4c32)CC1 (centres unmarked) [Example 93] | 5.15 |

Same assay, conditions: hPim1 Ki (nM), Ki converted from IC50; purified human Pim-1, Pim2tide substrate, ADP-Glo

| SMILES | Ki [nM] |
| --- | --- |
| O=C1NCCN(CCC2CCC(O)CC2)c2c1oc1ccc(C(F)(F)F)cc21 (centres unmarked) [Example 60] | 0.273 |
| [2H]C1(O)CCC(CCN2CCNC(=O)c3oc4ccc(C(F)(F)F)cc4c32)CC1 (centres unmarked) [Example 92] | 0.707 |

Same assay, conditions: read-out: hPim1 Ki; Ki converted from IC50; purified human Pim-1, Pim2tide substrate, ADP-Glo

| SMILES | Ki [nM] |
| --- | --- |
| O=C1NCCN(CCC2CCC(O)(CO)CC2)c2c1oc1ccc(C(F)(F)F)cc21 (centres unmarked) [Example 89] | 0.0329 |
